In patent publication US7270824B2, “Citrullinylarginine dipeptide analogs and their dermatological uses as care and treatment agents” (Exsymol S.A.M., priority 2002, dated 2007):
Non-standard residues stand in square brackets, D forms with d. Residues, ends and D or L forms follow the SMILES beside them. Cit = NC(=O)NCCC[C@H](N)C(=O)O

Experiments:
cultured fibroblasts = assay: Test 1: ATP dosage, energetic metabolism of cultured fibroblasts; assay type: cell-based; conditions: 1% active ingredient; fibroblasts 10^5 cells/ml, 2% fetal calf serum; control 26.7 +/- 5.2
Protocol: Test 1: influence of analogs of the citrullinylarginine natural dipeptide on the energetic metabolism of cultured fibroblasts through a triphosphate adenosine (ATP) dosage. Comparison with the purified natural dipeptide.
The fibroblasts cells are cultivated and seeded at a rate of 10^5 cells/ml in the presence of a growth factor-deprived medium (2% fetal calf serum).
On each cell suspension, the ATP quantity is measured by photometry, by establishing the decrease of absorbance at 340 nm according to following specific equations: • ATP+3-phosphoglycérate---->ADP+1,3-diphosphoglycérate • 1,3-diphosphoglycérate+NADH---->glycéraldéhyde-3-P+NAD+P

[1] = test system: human fibroblast cell line; assay: Test 2: cell proliferation (cytostimulation), neutral red colorimetric test; assay type: cell-based; conditions: human fibroblasts, 2% fetal calf serum, OD 540 nm
Protocol: Test 2: evidence of the cytostimulating properties of the citrullinylarginine natural dipeptide analogs.
The test was performed on a human fibroblast cell line maintained in a culture medium filed with 2% fetal calf serum.
The assessment of the cell proliferation is carried out through a neutral red colorimetric test (Borenfreund E. and al. (1984), Toxicol. Lett., vol.24, pp.119). Cell growth variation is then obtained by measuring optical density (OD) at 540 nm, following the specific equation: […]

Structure (SMILES)	ATP quantity (cultured fibroblasts)	% stimulation ([1]; 0.016% active) [%]	% stimulation ([1]; 0.031% active) [%]	% stimulation ([1]; 0.063% active) [%]	% stimulation ([1]; 0.125% active) [%]	% stimulation ([1]; 0.5% active) [%]
CC(=O)N[C@@H](CCCNC(N)=O)C(=O)N[C@@H](CCCNC(=N)N)C(=O)O [NAc-Cit-Arg, N-acetyl-L-citrullinyl-L-arginine] (Ac-[Cit]-Arg-OH)	90.7 +/− 6.5 nM/mg proteins	5	26	34	40	45
N=C(N)NCCC[C@H](NC(=O)[C@@H](N)CCCNC(N)=O)C(=O)O [purified Cit-Arg, citrullinylarginine] (H-[Cit]-Arg-OH)	88.62 +/− 8 nM/mg proteins	2	25	30	32.5	36
